According to patent US9585871B2, “Method for treating and curing leishmaniosis using fexinidazole” (Merial Limited, priority 2013, dated 2017):
“And” between values parts separate entries of the source, which are not always exact repeats. Equal values may be shown once.

How the values were obtained:
Assay type in all cases: in vivo
L. infantum [1] = assay: Clinical study in dogs infected with L. infantum: Overall Biological Score; set-up: key: additive score of severity of hematology/chemistry changes; details: Glucantime 100 mg/kg dNMA SC or Fexinidazole 60 mg/kg PO once daily Days 0-27
Protocol: (§1) In a clinical study, dogs infected with L. infantum were treated with meglumine antimoniate (GLUCANTIME®, Merial) as a positive control, or FEX (Table 5). Eight blocks of two animals were formed based antibody titers and biological scores. Six dogs in each group were naturally infected by housing them in an endemic area for two years and two dogs in each group were artificially infected by intravenous administration of a known quantity of parasites recovered from the spleen of an infected dog.
(§2) The first group (FEX) was compared to the second group, which was treated with 27 mg/kg GLUCANTIME (meglumine antimoniate, or 100 mg/kg of dNMA) “GLU”), over 28 days.
(§3) Variables. The Clinical Score is an additive score of various clinical signs (body condition, lymphadenopathy, splenomegaly, appetite, behavior, mucous membrane color, dermatopathology, ocular signs, digestive signs, arthropathy) evaluated before treatment and on Days 7, 14, 21, 28, 57, 184, 219, 254, 282, 310, 345, 400 and 436. The Overall Biological Score is an additive score based on the severity of changes in hematology/chemistry values (creatinine, urine protein/creatinine, Hct, globulin, ALAT), evaluated pretreatment and on Days 28, 57, and 181. The L. infantum immunofluorescent antibody titers (IFAT) were determined from samples collected before treatment and on Days 28, 57, and 181. Finally, quantitative PCR (qPCR) for L. infantum was conducted on spleen aspirates collected before treatment and on Days 28, 57, 142, 184, and 373.

L. infantum [2] = assay: Clinical study in dogs infected with L. infantum: qPCR on spleen aspirates; details: spleen aspirate, Glucantime 100 mg/kg dNMA SC or Fexinidazole 60 mg/kg PO once daily Days 0-27
Protocol: as §1, §2, §3

L. infantum [3] = assay: Clinical study in dogs infected with L. infantum: Clinical Score; set-up: key: additive score of clinical signs (body condition, lymphadenopathy, etc.); details: Glucantime 100 mg/kg dNMA SC or Fexinidazole 60 mg/kg PO once daily Days 0-27
Protocol: as §1, §2, §3

L. infantum [4] = assay: Clinical study in dogs infected with L. infantum: overall outcome (cure, relapse, removal of animals)
Protocol: as §1
The first group (FEX) was compared to the second group, which was treated with 27 mg/kg GLUCANTIME (meglumine antimoniate, or 100 mg/kg of dNMA) “GLU”), over 28 days. […]

[5] = Day −7 (before treatment), individual dogs

With meglumine antimoniate [Glucantime] the “Overall Biological Score” value (L. infantum [1]; Day 28, individual dogs) was 2 (2×) and 1 and 4 and 3 (2×) and 2^1, the “Overall Biological Score, group average” value (L. infantum [1]; Day 28) was 2.4 and the “Overall Biological Score” value (L. infantum [1]; Day 57, individual dogs) was 1 (4×) and 4 (2×). The “Overall Biological Score, group average” value (L. infantum [1]; Day 57, Group 1 includes D28 data of Block 3 dog carried forward) was 2.0^3, the “Overall Biological Score” value (L. infantum [1]; Day 181, individual dogs) was 3 (2×) and 2 (2×) and 0 and 6 and the “Overall Biological Score, group average” value (L. infantum [1]; Day 181, Group 1 includes D28 data of Block 3 dog carried forward) was 2.7. For the same substance, the “Overall Biological Score” value (L. infantum [1]; Day −14 (pretreatment), individual dogs) was 6 and 1 (2×) and 3 (2×) and 7 and 2 (2×), the “Overall Biological Score, group average” value (L. infantum [1]; Day −14 (pretreatment)) was 3.1 and the “qPCR for L. infantum” value (L. infantum [2]; Day 28, individual dogs) was 4.04 log copies/mL and 3.73 log copies/mL and 5.93 log copies/mL and 5.63^3 log copies/mL and BLOQ^1 (BLOQ = Below Level of Quantification = < log 3.64 copies/mL spleen aspirate) and 5.77 log copies/mL and 6.40^2 log copies/mL and 5.81 log copies/mL. For the same substance, the “qPCR for L. infantum” value (L. infantum [2]; Day 57, individual dogs) was “BLOQ (BLOQ = Below Level of Quantification = < log 3.64 copies/mL spleen aspirate) (3×) and 4.93 log copies/mL and 5.14 log copies/mL and 4.78 log copies/mL”, the “qPCR for L. infantum” value (L. infantum [2]; Day 142, individual dogs) was “BLOQ (BLOQ = Below Level of Quantification = < log 3.64 copies/mL spleen aspirate) (3×) and 4.73 log copies/mL and 5.57 log copies/mL and 3.94 log copies/mL” and the “qPCR for L. infantum” value (L. infantum [2]; Day 184, individual dogs) was “BLOQ (BLOQ = Below Level of Quantification = < log 3.64 copies/mL spleen aspirate) (2×) and 3.97 log copies/mL and 5.53 log copies/mL and 7.01 log copies/mL and 5.62 log copies/mL”. For the same substance, the “qPCR for L. infantum” value (L. infantum [2]; Day 373, individual dogs) was “BLOQ (BLOQ = Below Level of Quantification = < log 3.64 copies/mL spleen aspirate) and 5.23 log copies/mL and 3.83 log copies/mL”, the “qPCR for L. infantum” value (L. infantum [2]; [5]) was 5.81 log copies/mL and 4.38 log copies/mL and 6.40 log copies/mL and 5.10 log copies/mL and 5.12 log copies/mL and 6.87 log copies/mL and 6.17 log copies/mL and 6.70 log copies/mL and the “Clinical Score, group average” value (L. infantum [3]; Day 7) was 1.3. For the same substance, the “Clinical Score, group average” value (L. infantum [3]; Day 14) was 1.1, the “Clinical Score, group average” value (L. infantum [3]; Day 21) was 2.1 and the “Clinical Score” value (L. infantum [3]; Day 28, individual dogs) was 0. For the same substance, the “Clinical Score, group average” value (L. infantum [3]; Day 28, Group 1 includes D21 data of Block 3 dog carried forward) was 1.33, the “Clinical Score” value (L. infantum [3]; Day 57, individual dogs) was 0 and the “Clinical Score, group average” value (L. infantum [3]; Day 57, Group 1 includes D21 data of Block 3 dog carried forward) was 1.33. The “Clinical Score” value (L. infantum [3]; Day 184, individual dogs) was 0, the “Clinical Score, group average” value (L. infantum [3]; Day 184) was 0.0 and the “Clinical Score” value (L. infantum [3]; Day 219, individual dogs) was 0. For the same substance, the “Clinical Score, group average” value (L. infantum [3]; Day 219) was 0.0, the “Clinical Score” value (L. infantum [3]; Day 254, individual dogs) was 3 and 0 (2×) and the “Clinical Score, group average” value (L. infantum [3]; Day 254) was 1.0. The “Clinical Score” value (L. infantum [3]; Day 282, individual dogs) was 3 and 0 (2×), the “Clinical Score, group average” value (L. infantum [3]; Day 282) was 1.0 and the “Clinical Score” value (L. infantum [3]; Day 310, individual dogs) was 2 and 0 (2×). The “Clinical Score, group average” value (L. infantum [3]; Day 310) was 0.7, the “Clinical Score” value (L. infantum [3]; Day 345, individual dogs) was 0 and the “Clinical Score, group average” value (L. infantum [3]; Day 345) was 0.0. For the same substance, the “Clinical Score” value (L. infantum [3]; Day 400, individual dogs) was 1 and 0 (2×), the “Clinical Score, group average” value (L. infantum [3]; Day 400) was 0.3 and the “Clinical Score” value (L. infantum [3]; Day 436, individual dogs) was 4 and 0 (2×). For the same substance, the “Clinical Score, group average” value (L. infantum [3]; Day 436) was 1.3, the “Clinical Score” value (L. infantum [3]; [5]) was 2 (3×) and 0 (4×) and 3 and the “Clinical Score, group average” value (L. infantum [3]; Day −7 (before treatment)) was 1.1. The “removal of animal due to deterioration” value (L. infantum [4]; Group 1 Block 3 dog, Glucantime 100 mg/kg dNMA SC once daily Days 0-27) was “^1Dog Group 1 Block 3 removed on Day 28 due to continued deterioration”, the “removal of animal due to toxicity” value (L. infantum [4]; Group 1 Block 8 dog, Glucantime 100 mg/kg dNMA SC once daily) was “^2Dog Group 1 Block 8 removed on Day 20 due to GLUCANTIME toxicity” and the “removal of animals due to lack of efficacy” value (L. infantum [4]; Group 1 Blocks 2, 4, 7 dogs, Glucantime 100 mg/kg dNMA SC once daily Days 0-27) was “^3Dogs Group 1 Blocks 2, 4, 7 removed after Day 184 due to lack of GLUCANTIME efficacy”.
